Test results published in ChEMBL document CHEMBL1201862, “PubChem BioAssay data set” (2004).
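How tested: cells in 96-well plates exposed to compound for 48 hours at five concentrations. Abbreviation: GI50, concentration required for 50% inhibition of growth.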 Active and inactive are the calls of the source. No stated cut-off is given here; in the data, active = GI50 up to about 1.1 µM and inactive = higher.

Legend:
Experiment in all cases: NCI tumour cell line growth inhibition, 48 h
786-0 = test system: 786-0
A498 = test system: A498
A549 = test system: A549
ACHN = test system: ACHN
BT-549 = test system: BT-549
CAKI-1 = test system: CAKI-1
CCRF-CEM = test system: CCRF-CEM
COLO 205 = test system: COLO 205
DU-145 = test system: DU-145
EKVX = test system: EKVX
HCC 2998 = test system: HCC 2998
HCT-116 = test system: HCT-116
HCT-15 = test system: HCT-15
HL-60 = test system: HL-60
HOP-62 = test system: HOP-62
HOP-92 = test system: HOP-92
HT-29 = test system: HT-29
Hs-578T = test system: Hs-578T
IGROV-1 = test system: IGROV-1
K562 = test system: K562
KM12 = test system: KM12
LOX IMVI = test system: LOX IMVI
M14 = test system: M14
MDA-MB-231 = test system: MDA-MB-231
MDA-MB-435 = test system: MDA-MB-435
MDA-N = test system: MDA-N
MOLT-4 = test system: MOLT-4
Malme-3M = test system: Malme-3M
NCI-H226 = test system: NCI-H226
NCI-H23 = test system: NCI-H23
NCI-H460 = test system: NCI-H460
NCI-H522 = test system: NCI-H522
NCI/ADR-RES = test system: NCI/ADR-RES
OVCAR-3 = test system: OVCAR-3
OVCAR-4 = test system: OVCAR-4
OVCAR-5 = test system: OVCAR-5
OVCAR-8 = test system: OVCAR-8
PC-3 = test system: PC-3
RPMI-8226 = test system: RPMI-8226
RXF 393 = test system: RXF 393
SF-268 = test system: SF-268
SF-295 = test system: SF-295
SF-539 = test system: SF-539
SK-MEL-28 = test system: SK-MEL-28
SK-MEL-2 = test system: SK-MEL-2
SK-MEL-5 = test system: SK-MEL-5
SK-OV-3 = test system: SK-OV-3
SN12C = test system: SN12C
SNB-19 = test system: SNB-19
SNB-75 = test system: SNB-75
SR = test system: SR
SW-620 = test system: SW-620
T47D = test system: T47D
TK-10 = test system: TK-10
U-251 = test system: U-251
UACC-257 = test system: UACC-257
UACC-62 = test system: UACC-62
MCF7 = test system: MCF7
UO-31 = test system: UO-31

Compound: COC(=O)[C@H](CC(C)C)NC1=C(Cl)C(=O)c2c(O)ccc(O)c2C1=O
- GI50 (786-0): 6.97 µM (inactive)
- GI50 (A498): > 10 µM (inactive)
- GI50 (A549): 7.24 µM (inactive)
- GI50 (ACHN): > 10 µM (inactive)
- GI50 (BT-549): > 10 µM (inactive)
- GI50 (CAKI-1): > 10 µM (inactive)
- GI50 (CCRF-CEM): 4.31 µM (inactive)
- GI50 (COLO 205): 4.34 µM (inactive)
- GI50 (DU-145): > 10 µM (inactive)
- GI50 (EKVX): > 10 µM (inactive)
- GI50 (HCC 2998): > 10 µM (inactive)
- GI50 (HCT-116): 2.46 µM (inactive)
- GI50 (HCT-15): 3.05 µM
- GI50 (HL-60): 8.02 µM (inactive)
- GI50 (HOP-62): > 10 µM (inactive)
- GI50 (HOP-92): > 10 µM (inactive)
- GI50 (HT-29): 3.01 µM (inactive)
- GI50 (Hs-578T): > 10 µM (inactive)
- GI50 (IGROV-1): > 10 µM (inactive)
- GI50 (K562): > 10 µM (inactive)
- GI50 (KM12): 6.43 µM (inactive)
- GI50 (LOX IMVI): 1.8 µM (inactive)
- GI50 (M14): 3.45 µM (inactive)
- GI50 (MDA-MB-231): > 10 µM (inactive)
- GI50 (MDA-MB-435): 8.89 µM (inactive)
- GI50 (MDA-N): 8.73 µM (inactive)
- GI50 (MOLT-4): 3.52 µM (inactive)
- GI50 (Malme-3M): 0.887 µM (active)
- GI50 (NCI-H226): > 10 µM (inactive)
- GI50 (NCI-H23): 6.53 µM (inactive)
- GI50 (NCI-H460): > 10 µM (inactive)
- GI50 (NCI-H522): > 10 µM (inactive)
- GI50 (NCI/ADR-RES): > 10 µM (inactive)
- GI50 (OVCAR-3): 1.73 µM (inactive)
- GI50 (OVCAR-4): > 10 µM (inactive)
- GI50 (OVCAR-5): > 10 µM (inactive)
- GI50 (OVCAR-8): > 10 µM (inactive)
- GI50 (PC-3): > 10 µM (inactive)
- GI50 (RPMI-8226): 4.81 µM (inactive)
- GI50 (RXF 393): > 10 µM (inactive)
- GI50 (SF-268): > 10 µM (inactive)
- GI50 (SF-295): > 10 µM (inactive)
- GI50 (SF-539): 9.02 µM (inactive)
- GI50 (SK-MEL-28): > 10 µM (inactive)
- GI50 (SK-MEL-2): > 10 µM (inactive)
- GI50 (SK-MEL-5): > 10 µM (inactive)
- GI50 (SK-OV-3): > 10 µM (inactive)
- GI50 (SN12C): > 10 µM (inactive)
- GI50 (SNB-19): > 10 µM (inactive)
- GI50 (SNB-75): > 10 µM (inactive)
- GI50 (SR): > 10 µM (inactive)
- GI50 (SW-620): 9.64 µM (inactive)
- GI50 (T47D): > 10 µM (inactive)
- GI50 (TK-10): > 10 µM (inactive)
- GI50 (U-251): > 10 µM (inactive)
- GI50 (UACC-257): > 10 µM (inactive)
- GI50 (UACC-62): > 10 µM (inactive)

Compound: N#Cc1c(-c2ccccc2)cc(-c2ccccc2)n(C2OCC(O)C(O)C2O)c1=S (centres undefined)
- GI50 (786-0): 25.7 µM (inactive)
- GI50 (A498): 19.7 µM (inactive)
- GI50 (A549): 22.8 µM (inactive)
- GI50 (ACHN): 18.3 µM (inactive)
- GI50 (BT-549): 16.6 µM (inactive)
- GI50 (CAKI-1): 32.5 µM (inactive)
- GI50 (CCRF-CEM): 16.4 µM (inactive)
- GI50 (COLO 205): 20.1 µM (inactive)
- GI50 (DU-145): 19.7 µM (inactive)
- GI50 (EKVX): 36.2 µM (inactive)
- GI50 (HCT-116): 14.7 µM (inactive)
- GI50 (HCT-15): 25.4 µM
- GI50 (HOP-62): 25.6 µM (inactive)
- GI50 (HT-29): 23 µM (inactive)
- GI50 (Hs-578T): 29.6 µM (inactive)
- GI50 (IGROV-1): 17.7 µM (inactive)
- GI50 (K562): 39 µM (inactive)
- GI50 (KM12): 12.9 µM (inactive)
- GI50 (LOX IMVI): 18.1 µM (inactive)
- GI50 (M14): 27.2 µM (inactive)
- GI50 (MCF7): 20.1 µM (inactive)
- GI50 (MDA-MB-231): 0.946 µM (active)
- GI50 (MDA-MB-435): 19 µM (inactive)
- GI50 (MDA-N): 17.3 µM (inactive)
- GI50 (MOLT-4): 16.7 µM (inactive)
- GI50 (Malme-3M): 30.7 µM (inactive)
- GI50 (NCI-H226): 16.9 µM (inactive)
- GI50 (NCI-H23): 21.3 µM (inactive)
- GI50 (NCI-H460): 15.4 µM (inactive)
- GI50 (NCI-H522): 18.2 µM (inactive)
- GI50 (NCI/ADR-RES): 32.4 µM (inactive)
- GI50 (OVCAR-3): 22.3 µM (inactive)
- GI50 (OVCAR-4): 24.5 µM (inactive)
- GI50 (OVCAR-5): 24.8 µM (inactive)
- GI50 (OVCAR-8): 20.8 µM (inactive)
- GI50 (PC-3): 14.6 µM (inactive)
- GI50 (RPMI-8226): 10.4 µM (inactive)
- GI50 (RXF 393): 18.4 µM (inactive)
- GI50 (SF-268): 23.4 µM (inactive)
- GI50 (SF-295): 18.5 µM (inactive)
- GI50 (SF-539): 22.2 µM (inactive)
- GI50 (SK-MEL-28): 26.6 µM (inactive)
- GI50 (SK-MEL-2): 25.4 µM (inactive)
- GI50 (SK-MEL-5): 14.7 µM (inactive)
- GI50 (SK-OV-3): 11.7 µM (inactive)
- GI50 (SN12C): > 10 µM (inactive)
- GI50 (SNB-19): 26.6 µM (inactive)
- GI50 (SNB-75): 24.9 µM (inactive)
- GI50 (SW-620): 16.5 µM (inactive)
- GI50 (T47D): 4.42 µM (inactive)
- GI50 (TK-10): 27.9 µM (inactive)
- GI50 (U-251): 15.3 µM (inactive)
- GI50 (UACC-257): 33.3 µM (inactive)
- GI50 (UACC-62): 1.66 µM (inactive)
- GI50 (UO-31): 19 µM (inactive)

Compound: C=CCNC(=S)N/C=C(/C(C)=O)C(=O)Nc1ccccc1C
- GI50 (786-0): > 100 µM (inactive)
- GI50 (A549): > 100 µM (inactive)
- GI50 (ACHN): > 100 µM (inactive)
- GI50 (BT-549): > 100 µM (inactive)
- GI50 (CAKI-1): > 100 µM (inactive)
- GI50 (COLO 205): > 100 µM (inactive)
- GI50 (DU-145): > 100 µM (inactive)
- GI50 (EKVX): > 100 µM (inactive)
- GI50 (HCC 2998): > 100 µM (inactive)
- GI50 (HCT-116): > 100 µM (inactive)
- GI50 (HCT-15): > 100 µM
- GI50 (HL-60): > 100 µM (inactive)
- GI50 (HOP-62): > 100 µM (inactive)
- GI50 (HT-29): > 100 µM (inactive)
- GI50 (Hs-578T): > 100 µM (inactive)
- GI50 (IGROV-1): > 100 µM (inactive)
- GI50 (K562): > 100 µM (inactive)
- GI50 (KM12): > 100 µM (inactive)
- GI50 (LOX IMVI): > 100 µM (inactive)
- GI50 (M14): > 100 µM (inactive)
- GI50 (MCF7): > 100 µM (inactive)
- GI50 (MDA-MB-231): > 100 µM (inactive)
- GI50 (MDA-MB-435): > 100 µM (inactive)
- GI50 (MDA-N): > 100 µM (inactive)
- GI50 (MOLT-4): > 100 µM (inactive)
- GI50 (NCI-H226): > 100 µM (inactive)
- GI50 (NCI-H23): > 100 µM (inactive)
- GI50 (NCI-H460): > 100 µM (inactive)
- GI50 (NCI-H522): > 100 µM (inactive)
- GI50 (NCI/ADR-RES): > 100 µM (inactive)
- GI50 (OVCAR-3): > 100 µM (inactive)
- GI50 (OVCAR-4): > 100 µM (inactive)
- GI50 (OVCAR-5): > 100 µM (inactive)
- GI50 (OVCAR-8): > 100 µM (inactive)
- GI50 (PC-3): > 100 µM (inactive)
- GI50 (RPMI-8226): 4.76 µM (inactive)
- GI50 (RXF 393): > 100 µM (inactive)
- GI50 (SF-268): > 100 µM (inactive)
- GI50 (SF-295): > 100 µM (inactive)
- GI50 (SF-539): > 100 µM (inactive)
- GI50 (SK-MEL-2): > 100 µM (inactive)
- GI50 (SK-MEL-5): > 100 µM (inactive)
- GI50 (SK-OV-3): > 100 µM (inactive)
- GI50 (SN12C): > 100 µM (inactive)
- GI50 (SNB-19): > 100 µM (inactive)
- GI50 (SW-620): > 100 µM (inactive)
- GI50 (T47D): > 100 µM (inactive)
- GI50 (TK-10): > 100 µM (inactive)
- GI50 (U-251): > 100 µM (inactive)
- GI50 (UACC-257): > 100 µM (inactive)
- GI50 (UACC-62): > 100 µM (inactive)
- GI50 (UO-31): > 100 µM (inactive)
